In the supplement of paper PMC10307832:

Key:
Experiment in all cases: relative viability (nuclei count vs DMSO), 5 days (fraction); higher = more cells survive
[1] = compound: C/C(=N\NC(=S)N1CCC1)/C2=CC=CC=N2 + COc1cc2c(Oc3ccc(NC(=O)C4(C(=O)Nc5ccc(F)cc5)CC4)cc3F)ccnc2cc1OCCCN1CCOCC1 [Foretinib] (partner 0.25 µM)
Summary of the method: (§1)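 Relative viability was taken as the ratio of nuclei in treated wells to nuclei in vehicle wells. Lung cancer cell lines in 1536-well plates received compounds by pin tool one day after seeding, either one drug alone or a fixed anchor-drug dose plus five library-drug doses (not always all listed) in √10 steps. Nuclei were counted on 4× images after 5 days of treatment, and values are medians of duplicate plates.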

[2] = compound: C/C(=N\NC(=S)N1CCC1)/C2=CC=CC=N2 + COc1cccc2cc(-c3nc([C@H]4CC[C@H](C(=O)O)CC4)n4ncnc(N)c34)[nH]c12 [OSI-027] (partner 0.5 µM)
Summary of the method: as §1

[3] = compound: C/C(=N\NC(=S)N1CCC1)/C2=CC=CC=N2 + NC(=O)Nc1cc(-c2cccc(F)c2)sc1C(=O)N[C@H]1CCCNC1 [AZD7762] (partner 0.2 µM)
Summary of the method: as §1

[4] = compound: C/C(=N\NC(=S)N1CCC1)/C2=CC=CC=N2 + Nc1nc2[nH]cc(CCc3ccc(C(=O)N[C@@H](CCC(=O)O)C(=O)O)cc3)c2c(=O)[nH]1 [Pemetrexed] (partner 0.2 µM)
Summary of the method: as §1

| Cell Line | relative viability ([1]; first compound 0.05 µM) | relative viability ([1]; first compound 0.1581 µM) | relative viability ([1]; first compound 0.5 µM) | relative viability ([1]; first compound 1.581 µM) | relative viability ([1]; first compound 5 µM) | relative viability ([2]; first compound 0.05 µM) | relative viability ([2]; first compound 0.1581 µM) | relative viability ([2]; first compound 0.5 µM) | relative viability ([2]; first compound 1.581 µM) | relative viability ([2]; first compound 5 µM) | relative viability ([3]; first compound 0.05 µM) | relative viability ([3]; first compound 0.1581 µM) | relative viability ([3]; first compound 0.5 µM) | relative viability ([3]; first compound 1.581 µM) | relative viability ([3]; first compound 5 µM) | relative viability ([4]; first compound 0.05 µM) | relative viability ([4]; first compound 0.1581 µM) | relative viability ([4]; first compound 0.5 µM) | relative viability ([4]; first compound 1.581 µM) | relative viability ([4]; first compound 5 µM) |
| --- | --- | --- | --- | --- | --- | --- | --- | --- | --- | --- | --- | --- | --- | --- | --- | --- | --- | --- | --- | --- |
| LCLC-103H | 0.176 | 0.311 | 0.221 | 0.133 | 0.167 | 0.178 | 0.22 | 0.217 | 0.2 | 0.19 | 0.272 | 0.219 | 0.27 | 0.185 | 0.262 | 0.321 | 0.301 | 0.328 | 0.253 | 0.325 |
| NCI-H2405 | 0.263 | 0.313 | 0.31 | 0.251 | 0.264 | 0.26 | 0.238 | 0.229 | 0.226 | 0.24 | 0.215 | 0.245 | 0.253 | 0.186 | 0.23 | 0.243 | 0.238 | 0.251 | 0.215 | 0.215 |
| HCC-15 | 0.131 | 0.0633 | 0.115 | 0.0865 | 0.0901 | 0.079 | 0.0907 | 0.0888 | 0.0899 | 0.0898 | 0.084 | 0.084 | 0.105 | 0.113 | 0.103 | 0.198 | 0.11 | 0.13 | 0.113 | 0.093 |
| PC-3 [JPC-3] | 0.518 | 0.525 | 0.349 | 0.259 | 0.242 | 0.271 | 0.301 | 0.265 | 0.25 | 0.214 | 0.317 | 0.384 | 0.307 | 0.243 | 0.234 | 0.394 | 0.464 | 0.308 | 0.265 | 0.237 |
| NCI-H1944 | 0.624 | 0.38 | 0.181 | 0.143 | 0.166 | 0.197 | 0.192 | 0.168 | 0.133 | 0.12 | 0.227 | 0.169 | 0.145 | 0.102 | 0.129 | 0.212 | 0.15 | 0.133 | 0.112 | 0.124 |
| HARA | 0.207 | 0.307 | 0.09 | 0.0777 | 0.0635 | 0.0966 | 0.0611 | 0.0659 | 0.0562 | 0.0621 | 0.129 | 0.199 | 0.144 | 0.104 | 0.124 | 0.218 | 0.174 | 0.212 | 0.141 | 0.165 |
| NCI-H2126 | 0.223 | 0.167 | 0.167 | 0.213 | 0.201 | 0.206 | 0.225 | 0.21 | 0.212 | 0.205 | 0.2 | 0.19 | 0.214 | 0.189 | 0.157 | 0.235 | 0.221 | 0.212 | 0.219 | 0.208 |
| LXF-289 | 0.422 | 0.31 | 0.294 | 0.311 | 0.121 | 0.2 | 0.223 | 0.222 | 0.146 | 0.0943 | 0.212 | 0.266 | 0.218 | 0.124 | 0.116 | 0.254 | 0.203 | 0.199 | 0.17 | 0.104 |
| NCI-H460 | 0.1 | 0.06 | 0.0602 | 0.0533 | 0.0171 | 0.0284 | 0.0249 | 0.0234 | 0.0201 | 0.0147 | 0.0608 | 0.0607 | 0.0479 | 0.0377 | 0.0347 | 0.0583 | 0.0469 | 0.0644 | 0.0399 | 0.014 |
| NCI-H1395 | 0.381 | 0.368 | 0.369 | 0.351 | 0.349 | 0.291 | 0.388 | 0.31 | 0.29 | 0.364 | 0.287 | 0.326 | 0.402 | 0.35 | 0.406 | 0.313 | 0.402 | 0.322 | 0.32 | 0.348 |
| NCI-H2170 | 0.871 | 0.341 | 0.312 | 0.199 | 0.203 | 0.34 | 0.294 | 0.237 | 0.217 | 0.158 | 0.298 | 0.178 | 0.153 | 0.126 | 0.1 | 0.235 | 0.208 | 0.202 | 0.155 | 0.116 |
